Experimental data taken from US20090258883A1, “1H-Indole-Pyridinecarboxamide and 1H-Indole-Piperidinecarboxamide Compounds” (LES LABORATOIRES SERVIER, priority 2005, published 2009).
Marks after values point to notes of the source that are not given here.

What was measured:
[1] = test system: tyrosine hydroxylase (TH) protein; assay: Induction of tyrosine hydroxylase (TH) in LC, SN and VTA of the mouse brain; format: in vivo, Balb/C mouse; details: three days after single injection, relative to mean value of control group
Source text: A search is made among the compounds for those which are capable of bringing about an increase in the tyrosine hydroxylase (TH) protein in the locus coeruleus (LC), substantia nigra (SN) and ventral tegmental area (VTA) of the brain of the Balb/C mouse. The animals used are consanguinal male mice of the pure Balb/C strain (Charles River Laboratories) aged 6 weeks at the time of treatment.
The mice are given a single injection, by the intraperitoneal route, of the compound under test, dissolved in 0.04M HCl solution (corresponding control: 0.04M HCl), if the compound is sufficiently soluble, or in olive oil 90%/DMSO 10% (corresponding control: olive oil 90%/DMSO 10%) for compounds that are insoluble in an aqueous medium. The volume injected is 100 μl. The test groups comprise 10 animals.
Three days after the injection of each compound, all the animals are sacrificed by decapitation. The brains are removed and then frozen in an isopentane solution at −30° C. for 45 seconds and subsequently stored at −80° C.
Serial coronal sections 20 microns thick are then taken using a cryomicrotome. Each structure of interest is then sampled along the posterior-anterior axis of the brain by taking sections at 80-micron spacings in the case of the LC and at 80- or 160-micron spacings in the case of the VTA and SN. The limits of those structures are those described in the atlas of Franklin and Paxinos. The total proteins of each of those sections are transferred by direct collection of the sections to a nitrocellulose filter (Millipore). The amounts of TH present in each sample are measured by immunochemistry, fluorimetric detection and image analysis.

[2] = test system: muscarinic (M) receptors; assay: Affinity for receptors, displacement of labelled specific ligand: muscarinic; format: binding
Method: (§1) The affinity for receptors is determined according to customary methods of relations between the specific ligand and the receptor, which may be of animal origin or a human recombinant. The affinity was determined by the method of displacement of the labelled specific ligand by the compound under test and expressed by the dissociation constant KI. The receptor affinity was accordingly studied for 28 conventional receptors.

[3] = test system: sigma (σ) receptors (ligand: haloperidol); assay: Affinity for receptors, displacement of labelled specific ligand: sigma; format: binding; details: concentration 10^−5 M
Method: as §1

[4] = Predicted metabolic stability, mouse hepatic microsomes; format: in vitro ADME; details: 10^−7 M, mouse hepatic microsomes 0.33 mg of prot/ml, NADPH
Method: (§2) The predicted metabolic stability is tested by incubation of the compounds at a concentration of 10^−7M in the presence of mouse, rat or human hepatic microsomes (0.33 mg of prot/ml). After addition of NADPH (nicotinamide adenine dinucleotide phosphate, reduced form), samples are taken at 0, 5, 15, 30 and 60 minutes. The enzymatic reaction is stopped using methanol (V/V). The protein is precipitated by centrifugation and the supernatant is analysed by LC-MS-MS.

[5] = Predicted metabolic stability, rat hepatic microsomes; format: in vitro ADME; details: 10^−7 M, rat hepatic microsomes 0.33 mg of prot/ml, NADPH
Method: as §2

[6] = Predicted metabolic stability, human hepatic microsomes; format: in vitro ADME; details: 10^−7 M, human hepatic microsomes 0.33 mg of prot/ml, NADPH
Method: as §2

[7] = molecular target: 5HT receptors (type 5HT2A) (Homo sapiens, UniProt P28223); assay: Affinity for receptors, displacement of labelled specific ligand: 5HT2A; format: binding
Chain of 5HT receptors (type 5HT2A) (P28223 whole entry): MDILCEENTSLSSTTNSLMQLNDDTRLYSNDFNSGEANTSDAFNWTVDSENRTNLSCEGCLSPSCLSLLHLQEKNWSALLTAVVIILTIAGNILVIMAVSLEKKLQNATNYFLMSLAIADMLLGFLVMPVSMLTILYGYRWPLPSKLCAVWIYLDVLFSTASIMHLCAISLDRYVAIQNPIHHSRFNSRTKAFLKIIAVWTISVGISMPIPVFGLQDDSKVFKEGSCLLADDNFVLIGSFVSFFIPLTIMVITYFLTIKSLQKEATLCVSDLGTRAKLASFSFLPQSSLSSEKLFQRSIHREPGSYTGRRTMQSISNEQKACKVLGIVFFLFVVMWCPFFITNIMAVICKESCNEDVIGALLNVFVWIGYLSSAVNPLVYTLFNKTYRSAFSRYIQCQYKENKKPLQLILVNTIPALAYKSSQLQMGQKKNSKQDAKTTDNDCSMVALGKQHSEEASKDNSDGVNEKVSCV

[8] = molecular target: dopaminergic receptors (type D1) (Homo sapiens, UniProt P21728); assay: Affinity for receptors, displacement of labelled specific ligand: D1; format: binding
Chain of dopaminergic receptors (type D1) (P21728 whole entry): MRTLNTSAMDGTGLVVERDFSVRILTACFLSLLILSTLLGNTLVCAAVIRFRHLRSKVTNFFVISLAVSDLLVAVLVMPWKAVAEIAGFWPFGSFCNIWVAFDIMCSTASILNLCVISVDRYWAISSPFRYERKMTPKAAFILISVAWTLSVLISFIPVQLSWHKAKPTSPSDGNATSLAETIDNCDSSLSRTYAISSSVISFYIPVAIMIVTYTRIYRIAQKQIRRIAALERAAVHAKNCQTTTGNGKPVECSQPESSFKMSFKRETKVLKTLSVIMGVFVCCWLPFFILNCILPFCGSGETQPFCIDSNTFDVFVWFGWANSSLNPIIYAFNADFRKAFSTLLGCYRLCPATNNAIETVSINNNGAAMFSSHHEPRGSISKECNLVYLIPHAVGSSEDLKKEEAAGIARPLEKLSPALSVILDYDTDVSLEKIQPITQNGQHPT

[9] = molecular target: dopaminergic receptors (type D2) (Homo sapiens, UniProt P14416); assay: Affinity for receptors, displacement of labelled specific ligand: D2; format: binding
Chain of dopaminergic receptors (type D2) (P14416 whole entry): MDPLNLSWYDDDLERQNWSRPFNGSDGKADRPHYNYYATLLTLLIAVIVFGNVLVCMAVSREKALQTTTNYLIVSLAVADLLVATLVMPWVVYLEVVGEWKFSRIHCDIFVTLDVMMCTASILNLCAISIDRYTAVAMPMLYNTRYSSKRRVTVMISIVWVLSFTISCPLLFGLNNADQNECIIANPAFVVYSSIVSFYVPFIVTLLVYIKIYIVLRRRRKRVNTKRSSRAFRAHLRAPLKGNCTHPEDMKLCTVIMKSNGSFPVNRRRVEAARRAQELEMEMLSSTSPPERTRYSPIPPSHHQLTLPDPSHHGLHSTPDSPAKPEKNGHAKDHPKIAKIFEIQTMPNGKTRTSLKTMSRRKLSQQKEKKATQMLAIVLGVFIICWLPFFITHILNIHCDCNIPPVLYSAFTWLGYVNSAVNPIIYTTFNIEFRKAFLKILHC

CN1CCN(CCN2CCC=C(C(=O)Nn3ccc4cc(Cl)ccc43)C2)CC1 [Example 47, N-(5-Chloroindol-1-yl)-1-[2-(4-methylpiperazin-1-yl)ethyl]-1,2,5,6-tetrahydropyridine-3-carboxamide]
amount of TH in LC section 1 ([1]; LC section 1 (posterior-to-anterior), i.p. 20 mg/kg): 232** % | amount of TH in LC section 2 ([1]; LC section 2, i.p. 20 mg/kg): 138* % | amount of TH in LC section 3 ([1]; LC section 3, i.p. 20 mg/kg): 176** % | amount of TH in LC section 4 ([1]; LC section 4, i.p. 20 mg/kg): 179** % | amount of TH in LC section 5 ([1]; LC section 5, i.p. 20 mg/kg): 172** % | amount of TH in LC section 6 ([1]; LC section 6, i.p. 20 mg/kg): 169** % | amount of TH in LC section 7 ([1]; LC section 7, i.p. 20 mg/kg): 153** % | amount of TH in LC section 8 ([1]; LC section 8, i.p. 20 mg/kg): 140** % | amount of TH in LC section 9 ([1]; LC section 9, i.p. 20 mg/kg): 84* % | amount of TH in LC section 10 ([1]; LC section 10, i.p. 20 mg/kg): 88% | amount of TH in LC section 11 ([1]; LC section 11, i.p. 20 mg/kg): 127% | amount of TH, LC, total ([1]; LC total, i.p. 20 mg/kg): 147** % | % inhibition M ([2]; concentration 10^−5 M): 10% | % inhibition M ([2]; concentration 10^−7 M): 19% | % inhibition σ [3]: 67% | % metabolic stability predicted using hepatic microsomes, Mouse [4]: 53% | % metabolic stability predicted using hepatic microsomes, Rat [5]: 87% | % metabolic stability predicted using hepatic microsomes, Human [6]: 78% | inhibition at 10 µM ([7]; concentration 10^−5 M): 15% | inhibition at 0.1 µM ([7]; concentration 10^−7 M): 10% | inhibition at 10 µM ([8]; concentration 10^−5 M): < 10% | inhibition at 0.1 µM ([8]; concentration 10^−7 M): < 10% | inhibition at 10 µM ([9]; concentration 10^−5 M): < 10% | inhibition at 0.1 µM ([9]; concentration 10^−7 M): < 10%
